For twelve compounds, IC50, Dmax and DC50 results are on record in patent publication US20260028354A1, “TETRAHYDRONAPHTHALENE DERIVATIVES AS ESTROGEN RECEPTOR DEGRADERS” (REGENT OF THE UNIVERSITY OF MICHIGAN, priority 2022, published 2026).

Structures are written as SMILES. Where two headings read alike, the source gives them in different places.

Usually IC50 stands for the concentration at which inhibition is half-maximal. By Dmax is commonly meant the greatest extent of degradation seen. For orientation: DC50 means the concentration giving 50% degradation.

One assay has as its target ERα_LBD (GST) (Homo sapiens (Human), UniProt P03372). The experiment in a line: IC50 measurements for binding to ERα_LBD (GST), LanthaScreen TR-FRET competitive binding. The following applies: ERα_LBD (GST) 4 nM, Fluormone ES2 Green tracer, 60 min; read-out: ERα HTRF IC50. The method in brief: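 Competitive TR-FRET displacement of Fluormone ES2 Green tracer (3 nM) from GST-tagged human ERα LBD (4 nM) with Tb anti-GST (2 nM), in nuclear receptor buffer K plus 5 mM DTT, 1% DMSO. 60 min at room temperature, dark; 520/495 nm ratio vs log[compound] fitted sigmoidally for IC50.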
In general terms: In TR-FRET formats the signal depends on donor and acceptor labels being close together.

The target of another assay is ER in MCF-7 cells (Homo sapiens (Human), UniProt P03372). The experiment in a line: In-cell Western (ICW) ER degradation assay in MCF-7 cells. In kind it is cell-based. The following applies: for DC50: MCF-7, ER degradation, read-out: MCF7 DC50.
Chain of ER in MCF-7 cells (P03372 whole entry): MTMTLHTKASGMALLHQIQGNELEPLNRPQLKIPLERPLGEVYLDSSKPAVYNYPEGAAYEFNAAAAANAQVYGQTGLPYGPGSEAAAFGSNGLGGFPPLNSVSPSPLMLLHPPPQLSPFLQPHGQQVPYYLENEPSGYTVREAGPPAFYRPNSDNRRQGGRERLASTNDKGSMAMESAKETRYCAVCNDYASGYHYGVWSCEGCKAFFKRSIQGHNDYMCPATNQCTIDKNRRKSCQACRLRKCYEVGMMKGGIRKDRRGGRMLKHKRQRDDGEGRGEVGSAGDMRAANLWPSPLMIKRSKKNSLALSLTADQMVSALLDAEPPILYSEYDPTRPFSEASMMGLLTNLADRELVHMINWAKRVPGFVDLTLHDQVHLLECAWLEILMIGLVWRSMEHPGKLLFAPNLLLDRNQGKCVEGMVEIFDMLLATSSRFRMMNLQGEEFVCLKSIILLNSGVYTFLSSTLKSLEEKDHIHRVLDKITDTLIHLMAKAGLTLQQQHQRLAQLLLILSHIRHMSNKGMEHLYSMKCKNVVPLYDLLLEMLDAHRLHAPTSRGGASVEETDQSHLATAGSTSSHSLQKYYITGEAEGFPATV
A further assay deals with ER in T47D cells (Homo sapiens (Human), UniProt P03372). The experiment in a line: In-cell Western (ICW) ER degradation assay in T47D cells. In kind it is cell-based. Conditions: for DC50: ER degradation.
Chain of ER in T47D cells (P03372 whole entry): as above
The subject of the next assay is MCF-7 cells. The assay is described as follows: CellTiter-Glo (CTG) cell proliferation assay in MCF-7 cells. In kind it is cell-based. Conditions: Homo sapiens, MCF7, 144 h, MCF-7 cell proliferation, Day 6. From the text: (§1) CellTiter-Glo® (CTG) Assays in MCF-7 and T47D Cell Lines.
(§2) In vitro Assay: MCF-7 and T47D CTG assay

A further assay deals with T47D cells. The experiment in a line: CellTiter-Glo (CTG) cell proliferation assay in T47D cells. In kind it is cell-based. Conditions: Homo sapiens, 144 h, Day 6.
From the text: as §1, §2
(In general: Cellular ATP, detected with luciferase, serves as a proxy for viable cell number.)

The target in another assay is CRBN/DDB1 (Homo sapiens (Human), UniProt Q96SW2). Format: binding. Conditions: His tagged CRBN+DDB1, Cy5-labeled Thalidomide probe, one hour; read-out: CRBN HTRF IC50. The method, then:
The binding potency was determined using HTRF assay technology (Perkin Elmer). Compounds were serially diluted in DMSO and […] volume was transferred to white 384-well plate.

Setting [1] is: MCF7, read-out: MCF7 Dmax, MCF-7, maximal ER degradation, 16 hrs treatment.
Where [2] appears, read: maximal ER degradation, 16 hrs treatment, read-out: T47D Dmax.
Setting [3] is: MCF7, MCF-7, maximal ER degradation, 16 hrs treatment, read-out: MCF7 Dmax.
The mark [4] stands for this setting: read-out: T47D Dmax, T47D, maximal ER degradation, 16 hrs treatment.

Chain of CRBN/DDB1 (Q96SW2 whole entry, species assumed): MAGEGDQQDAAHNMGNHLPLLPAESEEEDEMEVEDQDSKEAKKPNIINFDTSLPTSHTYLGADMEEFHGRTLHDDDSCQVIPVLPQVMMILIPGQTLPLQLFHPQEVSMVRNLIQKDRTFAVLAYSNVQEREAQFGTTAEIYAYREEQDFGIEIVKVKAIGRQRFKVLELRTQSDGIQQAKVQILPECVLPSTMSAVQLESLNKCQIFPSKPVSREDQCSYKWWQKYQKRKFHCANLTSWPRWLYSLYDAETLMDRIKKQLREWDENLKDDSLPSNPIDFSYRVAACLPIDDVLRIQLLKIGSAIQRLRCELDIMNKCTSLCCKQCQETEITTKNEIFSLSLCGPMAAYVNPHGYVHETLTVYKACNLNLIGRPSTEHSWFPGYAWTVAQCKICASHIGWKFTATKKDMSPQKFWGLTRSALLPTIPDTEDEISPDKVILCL
Chain of CRBN/DDB1 (Q16531 whole entry partner, species assumed): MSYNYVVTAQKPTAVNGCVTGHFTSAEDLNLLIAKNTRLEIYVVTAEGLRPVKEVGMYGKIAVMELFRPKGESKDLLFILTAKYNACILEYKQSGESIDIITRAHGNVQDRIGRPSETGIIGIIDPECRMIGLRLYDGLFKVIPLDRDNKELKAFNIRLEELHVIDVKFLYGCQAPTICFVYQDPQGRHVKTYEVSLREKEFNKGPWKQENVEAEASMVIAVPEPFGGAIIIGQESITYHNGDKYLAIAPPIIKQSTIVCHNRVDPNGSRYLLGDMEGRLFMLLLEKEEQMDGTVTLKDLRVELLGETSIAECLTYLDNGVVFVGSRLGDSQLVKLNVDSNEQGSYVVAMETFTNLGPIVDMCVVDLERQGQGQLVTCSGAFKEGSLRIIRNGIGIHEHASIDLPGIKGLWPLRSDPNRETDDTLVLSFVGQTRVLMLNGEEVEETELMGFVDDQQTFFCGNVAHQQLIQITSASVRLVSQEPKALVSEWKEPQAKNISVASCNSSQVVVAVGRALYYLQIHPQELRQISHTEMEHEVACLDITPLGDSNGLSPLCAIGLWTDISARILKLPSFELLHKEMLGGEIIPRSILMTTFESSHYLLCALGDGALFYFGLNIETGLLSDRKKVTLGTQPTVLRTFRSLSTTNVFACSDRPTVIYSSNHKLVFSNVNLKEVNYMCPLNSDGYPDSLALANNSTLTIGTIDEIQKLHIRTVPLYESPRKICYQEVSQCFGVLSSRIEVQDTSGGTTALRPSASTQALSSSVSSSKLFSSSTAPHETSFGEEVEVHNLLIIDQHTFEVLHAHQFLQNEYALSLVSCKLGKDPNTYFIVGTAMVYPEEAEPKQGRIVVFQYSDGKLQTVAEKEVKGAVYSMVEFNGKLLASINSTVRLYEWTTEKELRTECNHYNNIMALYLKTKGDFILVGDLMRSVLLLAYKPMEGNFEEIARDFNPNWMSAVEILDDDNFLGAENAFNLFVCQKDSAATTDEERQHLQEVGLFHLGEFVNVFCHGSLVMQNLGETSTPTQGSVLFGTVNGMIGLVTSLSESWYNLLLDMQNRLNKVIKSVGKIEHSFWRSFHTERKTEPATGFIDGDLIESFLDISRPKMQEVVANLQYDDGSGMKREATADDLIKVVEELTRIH
Chain of ERα_LBD (GST) (P03372 311-547): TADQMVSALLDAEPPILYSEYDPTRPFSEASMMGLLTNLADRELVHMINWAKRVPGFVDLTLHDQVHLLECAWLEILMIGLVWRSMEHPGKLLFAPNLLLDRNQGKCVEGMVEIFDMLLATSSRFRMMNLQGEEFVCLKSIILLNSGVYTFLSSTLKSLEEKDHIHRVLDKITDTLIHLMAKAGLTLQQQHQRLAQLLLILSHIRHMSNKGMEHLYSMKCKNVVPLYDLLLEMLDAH

With `COc1cc(N2CCC(CN3CCN4c5ccc6c(c5OCC4C3)CN([C@H]3CCC(=O)NC3=O)C6=O)CC2)c(F)cc1[C@@H]1c2ccc(O)cc2CC[C@@H]1c1ccccc1` (stereo in doubt) [Compound A35, (S)-3-((S)-7-((1-(2-fluoro-4-((1S,2S)-6-hydroxy-2-phenyl-1,2,3,4-tetrahydronaphthalen-1-yl)-5-methoxyphenyl)piperidin-4-yl)methyl)-1-oxo-1,3,5,5a,6,7,8,9-oCtahydro-2H-pyrazino[1′,2′: 4,5][1,4]oxazino[2,3-e]isoindol-2-yl)piperidine-2,6-dione], the half-maximal inhibitory concentration (IC50) was less than 10 nM on ERα_LBD (GST), 10 to 100 nM in the assay on MCF-7 cells and 10 to 100 nM in the assay on T47D cells. Further, the greatest degradation seen (Dmax) at ER in MCF-7 cells (setting [1]) and on ER in T47D cells (setting [2]) was more than 75% each time. Moreover, the half-maximal degradation concentration (DC50) on ER in MCF-7 cells (16 hrs treatment) and at ER in T47D cells (16 hrs treatment) was less than 1 nM each time.
Take `COc1cc(N2CCC3(CC2)C[C@H](CN2CCN4c5ccc6c(c5OC[C@H]4C2)CN([C@H]2CCC(=O)NC2=O)C6=O)CO3)c(F)cc1[C@@H]1c2ccc(O)cc2CC[C@@H]1c1ccccc1` [Compound A174, (S)-3-((R)-7-(((R)-8-(2-fluoro-4-((1S,2S)-6-hydroxy-2-phenyl-1,2,3,4-tetrahydronaphthalen-1-yl)-5-methoxyphenyl)-1-oxa-8-azaspiro[4.5]decan-3-yl)methyl)-1-oxo-1,3,5,5a,6,7,8,9-octahydro-2H-pyrazino[1′,2′:4,5][1,4]oxazino[2,3-e]isoindol-2-yl)piperidine-2,6-dione]: the IC50 at ERα_LBD (GST), with MCF-7 cells and with T47D cells was less than 10 nM in each case. Also, the greatest degradation seen (Dmax) at ER in MCF-7 cells (setting [3]) and on ER in T47D cells (setting [2]) was more than 75% in each case. The DC50 at ER in MCF-7 cells (16 hrs treatment) and on ER in T47D cells (16 hrs treatment) was less than 1 nM in each case.
For `COc1cc(N2CCC3(CC2)C[C@H](CN2CCC4(CC2)COc2cc5c(cc24)CN([C@H]2CCC(=O)NC2=O)C5=O)CO3)c(F)cc1[C@@H]1c2ccc(O)cc2CC[C@@H]1c1ccccc1` [Compound A175, (S)-3-(1′-(((R)-8-(2-fluoro-4-((1S,2S)-6-hydroxy-2-phenyl-1,2,3,4-tetrahydronaphthalen-1-yl)-5-methoxyphenyl)-1-oxa-8-azaspiro[4.5]decan-3-yl)methyl)-7-oxo-5,7-dihydro-2H,6H-spiro[furo[2,3-f]isoindole-3,4′-piperidin]-6-yl)piperidine-2,6-dione], the half-maximal inhibitory concentration (IC50) on ERα_LBD (GST), with MCF-7 cells and with T47D cells was less than 10 nM each time. In addition, the maximal degradation (Dmax) on ER in MCF-7 cells (setting [1]) and on ER in T47D cells (setting [4]) was more than 75% each time. Moreover, the 50% degradation concentration (DC50) at ER in MCF-7 cells (16 hrs treatment) and on ER in T47D cells (16 hrs treatment) was less than 1 nM each time.
For `COc1cc(N2CCC(CN3CCN4c5cc6c(cc5OC[C@H]4C3)C(=O)N([C@@H]3CCC(=O)NC3=O)C6)CC2)ccc1[C@H]1c2ccc(O)cc2CC[C@H]1c1ccccc1` (stereo in doubt) [Compound A34, (R)-3-((R)-3-((1-(4-((1R,2R)-6-hydroxy-2-phenyl-1,2,3,4-tetrahydronaphthalen-1-yl)-3-methoxyphenyl)piperidin-4-yl)methyl)-8-oxo-1,2,3,4,4a,5,8,10-octahydro-9H-pyrazino[1′,2′: 4,5][1,4]oxazino[2,3-f]isoindol-9-yl)piperidine-2,6-dione], the greatest degradation seen (Dmax) at ER in MCF-7 cells (setting [1]) and at ER in T47D cells (setting [2]) was more than 75% each time. In addition, the DC50 at ER in MCF-7 cells (16 hrs treatment) and on ER in T47D cells (16 hrs treatment) was less than 1 nM throughout. The 50% inhibitory concentration (IC50) in the assay on MCF-7 cells and in the assay on T47D cells was less than 10 nM in each case.
Turning to `COc1cc(N2CCC3(CC2)CC(CN2CCC(c4ccc(N[C@@H]5CCC(=O)NC5=O)cc4)CC2)C3)c(F)cc1[C@@H]1c2ccc(O)cc2CC[C@@H]1c1ccccc1` (single isomer, unassigned) [Compound A31], the IC50 at ERα_LBD (GST) was less than 10 nM; in the assay on MCF-7 cells it was 10 to 100 nM; with T47D cells, more than 100 nM. For the same compound, the greatest degradation seen (Dmax) on ER in MCF-7 cells (setting [3]) is 50 to 75%; on ER in T47D cells (setting [2]), more than 75%. For the same compound, the DC50 at ER in MCF-7 cells (16 hrs treatment) and at ER in T47D cells (16 hrs treatment) was less than 1 nM each time.
Regarding `COc1cc(N2CCC3(CC2)C[C@H](CN2CCN4c5cc6c(cc5OC[C@@H]4C2)C(=O)N([C@H]2CCC(=O)NC2=O)C6)CO3)c(F)cc1[C@@H]1c2ccc(O)cc2CC[C@@H]1c1ccccc1` [Compound A173, (S)-3-((S)-3-(((R)-8-(2-fluoro-4-((1S,2S)-6-hydroxy-2-phenyl-1,2,3,4-tetrahydronaphthalen-1-yl)-5-methoxyphenyl)-1-oxa-8-azaspiro[4.5]decan-3-yl)methyl)-8-oxo-1,2,3,4,4a,5,8,10-octahydro-9H-pyrazino[1′,2′:4,5][1,4]oxazino[2,3-f]isoindol-9-yl)piperidine-2,6-dione], the IC50 on ERα_LBD (GST), in the assay on MCF-7 cells and with T47D cells was less than 10 nM throughout. Moreover, the Dmax at ER in MCF-7 cells (setting [3]) and on ER in T47D cells (setting [2]) was more than 75% throughout. Moreover, the half-maximal degradation concentration (DC50) at ER in MCF-7 cells (16 hrs treatment) and at ER in T47D cells (16 hrs treatment) was less than 1 nM each time.
As for `COc1cc(N2CCC3(CC2)C[C@@H](CN2CCN4c5cc6c(cc5OC[C@@H]4C2)C(=O)N([C@H]2CCC(=O)NC2=O)C6)CO3)ccc1[C@@H]1c2ccc(O)cc2CC[C@@H]1c1ccccc1` (single isomer, unassigned) [Compound A136], the IC50 on CRBN/DDB1 was 500 to 5000 nM; on ERα_LBD (GST) it was less than 10 nM; in the assay with MCF-7 cells, less than 10 nM; in the assay with T47D cells it was less than 10 nM. Moreover, the Dmax at ER in MCF-7 cells (setting [3]) and at ER in T47D cells (setting [2]) was more than 75% each time. Besides, the half-maximal degradation concentration (DC50) at ER in MCF-7 cells (16 hrs treatment) and at ER in T47D cells (16 hrs treatment) was less than 1 nM in each case.
Turning to `O=C1CC[C@H](N2Cc3c(ccc4c3OC[C@H]3CN(CC5COC6(C5)CN(c5ccc([C@H]7c8ccc(O)cc8CC[C@H]7c7ccccc7)cc5)C6)CCN43)C2=O)C(=O)N1` (single isomer, unassigned) [Compound A41], the IC50 at CRBN/DDB1 is less than 50 nM; at ERα_LBD (GST), less than 10 nM; in the assay with MCF-7 cells, less than 10 nM; in the assay with T47D cells, less than 10 nM. The Dmax on ER in MCF-7 cells (setting [3]) and on ER in T47D cells (setting [2]) was more than 75% throughout. Moreover, the DC50 at ER in MCF-7 cells (16 hrs treatment) and on ER in T47D cells (16 hrs treatment) was less than 1 nM throughout.
Take `COc1cc(N2CCC3(CC2)C[C@H](CN2CCC4(CC2)COc2c4ccc4c2CN([C@H]2CCC(=O)NC2=O)C4=O)CO3)c(F)cc1[C@@H]1c2ccc(O)cc2CC[C@@H]1c1ccccc1` [Compound A176]: the IC50 on ERα_LBD (GST), in the assay on MCF-7 cells and in the assay with T47D cells was less than 10 nM throughout. The Dmax on ER in MCF-7 cells (setting [1]) and at ER in T47D cells (setting [4]) was more than 75% each time. Moreover, the DC50 at ER in MCF-7 cells (16 hrs treatment) and at ER in T47D cells (16 hrs treatment) was less than 1 nM in each case.
For the compound `O=C1CC[C@H](N2Cc3cc4c(cc3C2=O)OC[C@@H]2CN(CC3COC5(C3)CN(c3ccc([C@H]6c7ccc(O)cc7CC[C@H]6c6ccccc6)cc3)C5)CCN42)C(=O)N1` (single isomer, unassigned) [Compound A43], the IC50 on CRBN/DDB1 is 50 to 500 nM; at ERα_LBD (GST), less than 10 nM; in the assay on MCF-7 cells, 10 to 100 nM; in the assay with T47D cells, 10 to 100 nM. Moreover, the Dmax at ER in MCF-7 cells (setting [3]) is 50 to 75%; on ER in T47D cells (setting [2]), more than 75%. Besides, the 50% degradation concentration (DC50) on ER in MCF-7 cells (16 hrs treatment) and at ER in T47D cells (16 hrs treatment) was less than 1 nM each time.
Turning to `COc1cc(N2CCC3(CC2)CC(CN2CCC4(CC2)COc2c4ccc4c2CN([C@H]2CCC(=O)NC2=O)C4=O)C3)c(F)cc1[C@@H]1c2ccc(O)cc2CC[C@@H]1c1ccccc1` [Compound A100, (S)-3-(1′-((7-(2-fluoro-4-((1S,2S)-6-hydroxy-2-phenyl-1,2,3,4-tetrahydronaphthalen-1-yl)-5-methoxyphenyl)-7-azaspiro[3.5]nonan-2-yl)methyl)-6-oxo-6,8-dihydro-2H,7H-spiro[furo[2,3-e]isoindole-3,4′-piperidin]-7-yl)piperidine-2,6-dione], the IC50 on CRBN/DDB1 was less than 50 nM; at ERα_LBD (GST), less than 10 nM; in the assay on MCF-7 cells it was less than 10 nM; in the assay with T47D cells it was less than 10 nM. Moreover, the greatest degradation seen (Dmax) on ER in MCF-7 cells (setting [1]) and on ER in T47D cells (setting [4]) was more than 75% in each case. In addition, the half-maximal degradation concentration (DC50) on ER in MCF-7 cells (16 hrs treatment) and on ER in T47D cells (16 hrs treatment) was less than 1 nM in each case.
Take `O=C1CC[C@H](N2Cc3cc4c(cc3C2=O)OC[C@@H]2CN(C[C@H]3COC5(C3)CN(c3ccc([C@@H]6c7ccc(O)cc7CC[C@@H]6c6ccccc6)cc3)C5)CCN42)C(=O)N1` [Compound A72, (S)-3-((S)-3-(((S)-2-(4-((1R, 2S)-6-hydroxy-2-phenyl-1,2,3,4-tetrahydronaphthalen-1-yl)phenyl)-5-oxa-2-azaspiro [3.4]octan-7-yl)methyl)-8-oxo-1,2,3,4,4a,5,8,10-octahydro-9H-pyrazino[1′,2′:4,5][1,4]oxazino[2,3-f]isoindol-9-yl)-piperidine-2,6-dione]: the concentration for half-maximal inhibition (IC50) on CRBN/DDB1 was 50 to 500 nM; at ERα_LBD (GST), less than 10 nM; in the assay on MCF-7 cells it was less than 10 nM. Further, the maximal degradation (Dmax) is 50 to 75% at ER in MCF-7 cells (setting [3]) and more than 75% at ER in T47D cells (setting [2]). The DC50 on ER in MCF-7 cells (16 hrs treatment) and at ER in T47D cells (16 hrs treatment) was less than 1 nM throughout.
